Assay results reported in patent US7049332B2, “HIV inhibiting N-aminoimidazole derivatives” (K. U. Leuven Research & Development, priority 2001, dated 2006).
Converted amounts (≈) assume the structure as drawn.

Key:
HIV-2 (ROD) = test: Inhibition of HIV-induced cytopathogenic effect in MT-4 cells (MTT), HIV-2; type: cell-based; settings: for IC50: Human immunodeficiency virus 2, MT4, 50% protection against HIV-induced cytopathogenic effect, MT-4 cells, MTT; for HIV-2 (ROD) SI: selectivity index = ratio of CC50 to IC50, HIV-2
Experimental: (§1) A rapid and automated assay procedure was used for the in vitro evaluation of anti-HIV agents. An HTLV-1 transformed T4-cell line MT-4, which was previously shown to be highly susceptible to and permissive for HIV infection, served as the target cell line. Inhibition of the HIV-induced cytopathogenic effect was used as the end point. The viabitlity of both HIV-and mock-infected cells was assessed spectrophotometrically via in situ reduction of 3-(4,5-dimethylthiazol-2-yl)-2,5-diphenyltetrazolium bromide (MTT). The 50% cytotoxic concentration (CC50 in μg/ml) was defined as the concentration of compound that reduced the absorbance of the mock-infected control sample by 50%. The percent protection achieved by the compound in HIV-infected cells was calculated by the following formula:
(§2) [formula] whereby (ODT)HIV is the optical density measured with a given concentration of the test compound in HIV-infected cells; (ODC)HIV is the optical density measured for the control untreated HIV-infected cells; (ODC)MOCK is the optical density measured for the control untreated mock-infected cells; all optical density values were determined at 540 nm. The dose achieving 50% protection according to the above formula was defmed as the 50% inhibitory concentration (IC50 in μg/ml). The ratio of CC50 to IC50 was defined as the selectivity index (SI).
(§3) Cells: MT-4 cells (Miyoshi et al., 1982) were grown and maintained in RPMI 1640 medium supplemented with 10% heat-inactivated fetal calf serum, 2 mM 1-glutamine, 0.1% sodium bicarbonate, and 20 œg of gentamicin per ml.
(§4) Viruses: The HIV-1(NL4.3) strain (Adachi et al., 1986) is a molecular clone obtained from the National Institutes of Health (Bethesda, Md.). The HIV-2(ROD) (Barr,-Sinoussi et al., 1983) stock was obtained from culture supernatant of HIV-2 infected cell lines.

HIV-1 (NL4.3 WT) = test: Inhibition of HIV-induced cytopathogenic effect in MT-4 cells (MTT), HIV-1; type: cell-based; settings: for IC50: Human immunodeficiency virus 1, MT4, 50% protection against HIV-induced cytopathogenic effect, MT-4 cells, MTT; for HIV-1 (NL4.3 WT) SI: selectivity index = ratio of CC50 to IC50, HIV-1
Experimental: as §1, §2, §3, §4

[1] = Cytotoxicity in mock-infected MT-4 cells (MTT); type: cell-based; settings: human; mock-infected MT-4 cells, absorbance reduced by 50%, MTT
Experimental: as §1, with “formula: Examples of inhibition of cell proliferation by particular compounds of formula (I) can be found by looking at the respective CC50 values in the MT-4 cell line. Cells: MT-4 cells (Miyoshi et al., 1982) were grown and maintained in RPMI 1640 medium supplemented with 10% heat-inactivated fetal calf serum, 2 mM […], 0.1% sodium bicarbonate, and 20 œg of gentamicin per ml.” for “formula:”

Row | Structure (SMILES) | melting point | further results
1 | Cc1cccc(Nn2c(-c3ccccc3)c(C)[nH]c2=S)c1 [Compound 9.19, 2,3-Dihydro-4-methyl-1-(3-methylphenylamino)-5-phenyl-1H-imidazole-2-thione] | 206 °C | IC50 (HIV-2 (ROD)): > 20.7 µg/mL; HIV-2 (ROD) SI (HIV-2 (ROD)): <1; IC50 (HIV-1 (NL4.3 WT)): 0.6 µg/mL (≈ 2.03 µM); HIV-1 (NL4.3 WT) SI (HIV-1 (NL4.3 WT)): 32.3; CC50 [1]: 20.7 µg/mL (≈ 70.1 µM)
2 | CCc1ncn(Nc2cccc(C)c2)c1-c1ccccc1 [Compound 13.11, 4-Ethyl-1-(3-methylphenylamino)-5-phenyl-1H-imidazole] | 158 to 160 °C | 
3 | S=c1[nH]c(-c2ccccc2)c(-c2ccccc2)n1Nc1cccc(Cl)c1 [Compound 9.26, 1-(3-Chlorophenylamino)-2,3-dihydro-4,5-diphenyl-1H-imidazole-2-thione] | 178 to 180 °C | 
4 | CCc1[nH]c(=S)n(Nc2cccc(C)c2)c1-c1ccccc1 [Compound 9.25, 2,3-Dihydro-4-ethyl-1-(3-methylphenylamino)-5-phenyl-1H-imidazole-2-thione] | 202 to 204 °C | IC50 (HIV-2 (ROD)): > 19.8 µg/mL; HIV-2 (ROD) SI (HIV-2 (ROD)): <1; IC50 (HIV-1 (NL4.3 WT)): 3.9 µg/mL (≈ 12.6 µM); HIV-1 (NL4.3 WT) SI (HIV-1 (NL4.3 WT)): 5.0; CC50 [1]: 19.8 µg/mL (≈ 64 µM)
5 | Cc1ncn(Nc2ccccc2)c1-c1ccccc1 [Compound 13.05, 4-Methyl-5-phenyl-1-phenylamino-1H-imidazole] | 165 to 167 °C | 
6 | Cc1ncn(Nc2cccc(Cl)c2)c1C [Compound 13.07, 1-(3-Chlorophenylamino)-4,5-dimethyl-1H-imidazole] | 146 °C | 
7 | S=c1[nH]c2c(n1Nc1cccc(Cl)c1)CCCC2 [Compound 9.11, 1-(3-Chlorophenylamino)-2,3,4,5,6,7-hexahydro-1H-benzimidazole-2-thione] | 148 °C | IC50 (HIV-2 (ROD)): > 34 µg/mL; HIV-2 (ROD) SI (HIV-2 (ROD)): <1; IC50 (HIV-1 (NL4.3 WT)): 13.1 µg/mL (≈ 46.8 µM); HIV-1 (NL4.3 WT) SI (HIV-1 (NL4.3 WT)): 2.6; CC50 [1]: 34 µg/mL (≈ 122 µM)
8 | Cc1cccc(Nn2cnc(C)c2C)c1 [Compound 13.08, 4,5-Dimethyl-1-(3-methylphenylamino)-1H-imidazole] | 144 °C | 
9 | COC(=O)c1cccc(-c2c(C)[nH]c(=S)n2Nc2cccc(C)c2)c1 [Compound 9.35, 2,3-Dihydro-4-methyl-1-(3-methylphenylamino)-5-(3-methoxycarbonylphenyl)-1H-imidazole-2-thione] | 164 to 166 °C | 
10 | Cc1[nH]c(=S)n(Nc2cccc(Cl)c2)c1-c1cccc(Br)c1 [Compound 9.05, 5-(3-Bromophenyl)-1-(3-chlorophenylamino)-2,3-dihydro-4-methyl-1H-imidazole-2-thione] | 196 °C | IC50 (HIV-2 (ROD)): 4.1 µg/mL (≈ 10.4 µM); HIV-2 (ROD) SI (HIV-2 (ROD)): 5.5; IC50 (HIV-1 (NL4.3 WT)): 2.2 µg/mL (≈ 5.57 µM); HIV-1 (NL4.3 WT) SI (HIV-1 (NL4.3 WT)): 10.4; CC50 [1]: 22.9 µg/mL (≈ 58 µM)
11 | Cc1ncn(Nc2ccccc2)c1C [Compound 13.06, 4,5-Dimethyl-1-phenylamino-1H-imidazole] | 178 °C | 
12 | Cc1[nH]c(=S)n(Nc2ccccc2Cl)c1-c1ccccc1 [Compound 9.02, 1-(2-Chlorophenylamino)-2,3-dihydro-4-methyl-5-phenyl-1H-imidazole-2-thione] | 220 to 221 °C | IC50 (HIV-2 (ROD)): > 65 µg/mL; HIV-2 (ROD) SI (HIV-2 (ROD)): <1; IC50 (HIV-1 (NL4.3 WT)): 7.4 µg/mL (≈ 23.4 µM); HIV-1 (NL4.3 WT) SI (HIV-1 (NL4.3 WT)): 9.0; CC50 [1]: 65 µg/mL (≈ 206 µM)
13 | Cc1[nH]c(=S)n(Nc2cccc(Cl)c2)c1-c1ccc(Cl)cc1 [Compound 9.08, 5-(4-Chlorophenyl)-1-(3-chlorophenylamino)-2,3-dihydro-4-methyl-1H-imidazole-2-thione] | 225 °C | 
14 | COc1cccc(Nn2cnc(C)c2-c2ccccc2)c1 [Compound 13.14, 1-(3-Methoxyphenylamino)-4-methyl-5-phenyl-1H-imidazole] | 156 to 158 °C | 
15 | Cc1nc(SCc2ccccc2)n(Nc2cccc(Cl)c2)c1-c1ccccc1 | 130 °C | 
16 | Cc1ncn(Nc2cccc(Cl)c2)c1-c1cccc(Cl)c1 [Compound 13.03, 5-(3-Chlorophenyl)-1-(3-chlorophenylamino)-4-methyl-1H-imidazole] | 168 °C | IC50 (HIV-2 (ROD)): 0.23 µg/mL (≈ 0.723 µM); HIV-2 (ROD) SI (HIV-2 (ROD)): 63.8; IC50 (HIV-1 (NL4.3 WT)): 0.2 µg/mL (≈ 0.629 µM); HIV-1 (NL4.3 WT) SI (HIV-1 (NL4.3 WT)): 73.5; CC50 [1]: 14.7 µg/mL (≈ 46.2 µM)
17 | COC(=O)c1[nH]c(=S)n(Nc2cccc(Cl)c2)c1C [Compound 9.29, 1-(3-Chlorophenylamino)-2,3-dihydro-4-methoxycarbonyl-5-methyl-1H-imidazole-2-thione] | 160 to 162 °C | 

Row | Structure (SMILES) | melting point | further results
18 | Cc1[nH]c(=S)n(Nc2ccccc2)c1C [Compound 9.21, 2,3-Dihydro-4,5-dimethyl-1-(phenylamino)-1H-imidazole-2-thione] | 217 to 219 °C | 
19 | Cc1c(-c2ccccc2)[nH]c(=S)n1Nc1cccc(Cl)c1 [Compound 9.10, 1-(3-Chlorophenylamino)-2,3-dihydro-5-methyl-4-phenyl-1H-imidazole-2-thione] | 238 °C | 
20 | CSc1nc(C)c(-c2ccccc2)n1Nc1cccc(Cl)c1 | 215 °C | 
21 | Cc1[nH]c(=S)n(Nc2ccc(Cl)cc2)c1-c1ccccc1 [Compound 9.04, 1-(4-Chlorophenylamino)-2,3-dihydro-4-methyl-5-phenyl-1H-imidazole-2-thione] | 212 to 214 °C | 
22 | Clc1cccc(Nn2cnc3c2CCCC3)c1 [Compound 13.04, 1-(3-Chlorophenylamino)-4,5,6,7-tetrahydro-1H-benzimidazole] | 180 °C | 
23 | COC(=O)c1c(C)[nH]c(=S)n1Nc1cccc(Cl)c1 [Compound 9.27, 1-(3-Chlorophenylamino)-2,3-dihydro-5-methoxycarbonyl-4-methyl-1H-imidazole-2-thione] | 194 to 196 °C | 
24 | COc1ccc(-c2c(C)[nH]c(=S)n2Nc2cccc(Cl)c2)cc1 [Compound 9.09, 2,3-Dihydro-1-(3-chlorophenylamino)-5-(4-methoxyphenyl)-4-methyl-1H-imidazole-2-thione] | 226 °C | 
25 | Cc1cccc(Nn2c(-c3ccccc3)c(C(C)C)[nH]c2=S)c1 [Compound 9.23, 2,3-Dihydro-4-isopropyl-1-(3-methylphenylamino)-5-phenyl-1H-imidazole-2-thione] | 220 to 222 °C | 
26 | Cc1ncn(Nc2ccc(F)cc2)c1-c1ccccc1 [Compound 13.10, 1-(4-Fluorophenylamino)-4-methyl-5-phenyl-1H-imidazole] | 155 °C | 
27 | Cc1cc(C)cc(Nn2cnc(C)c2-c2ccccc2)c1 [Compound 13.13, 1-(3,5-Dimethylphenylamino)-4-methyl-5-phenyl-1H-imidazole] | 154 to 156 °C | 
28 | CCc1[nH]c(=S)n(Nc2cccc(Cl)c2)c1-c1ccccc1 [Compound 9.24, 1-(3-Chlorophenylamino)-2,3-dihydro-4-ethyl-5-phenyl-1H-imidazole-2-thione] | 116 to 118 °C | 
29 | Cc1[nH]c(=S)n(Nc2cccc(Cl)c2)c1C [Compound 9.20, 2,3-Dihydro-4,5-dimethyl-1-(3-chlorophenylamino)-1H-imidazole-2-thione] | 234 °C | 
30 | Cc1cccc(Nn2cnc(C)c2-c2cccc(C#N)c2)c1 [Compound 13.16, 5-(3-Cyanophenyl)-4-methyl-1-(3-methylphenylamino)-1H-imidazole] | 138 to 140 °C | 
31 | Cc1[nH]c(=S)n(Nc2cccc(Cl)c2)c1C(=O)O [Compound 9.28, 1-(3-Chlorophenylamino)-2,3-dihydro-5-hydroxycarbonyl-4-methyl-1H-imidazole-2-thione] | 166 to 168 °C | 
32 | Cc1cccc(Nn2c(C)c(C)[nH]c2=S)c1 [Compound 9.22, 2,3-Dihydro-4,5-dimethyl-1-(3-methylphenylamino)-1H-imidazole-2-thione] | 230 °C | 
33 | Cc1[nH]c(=S)n(Nc2ccc(F)cc2)c1-c1ccccc1 [Compound 9.03, 2,3-Dihydro-1-(4-fluorophenylamino)-4-methyl-5-phenyl-1H-imidazole-2-thione] | 228 °C | 
